Test results taken from patent publication US20260015409A1, “RECEPTOR-MEDIATED ENDOCYTOSIS FOR TARGETED INTERNALIZATION AND DEGRADATION OF MEMBRANE PROTEINS AND CARGOS” (Dana-Farber Cancer Institute, Inc., priority 2022, published 2026).
“Also recorded” adds a separate entry of the source. Where a SMILES comes first, the peptide text is derived from it. The star is where a group is joined. Cbz = O=C(OCc1ccccc1)*

Columns and labels:
EGFR = molecular target: T1, EGFR (Homo sapiens, UniProt P00533); assay: EGFR degradation by Western blot in A549 lung carcinoma cells; type: cell-based; settings: A549 cells treated with EGFR-TransTACs; 1 μM inhibitor
T1 construct: endogenous in cells; host or cells: A549
T1 sequence (P00533 25-1210): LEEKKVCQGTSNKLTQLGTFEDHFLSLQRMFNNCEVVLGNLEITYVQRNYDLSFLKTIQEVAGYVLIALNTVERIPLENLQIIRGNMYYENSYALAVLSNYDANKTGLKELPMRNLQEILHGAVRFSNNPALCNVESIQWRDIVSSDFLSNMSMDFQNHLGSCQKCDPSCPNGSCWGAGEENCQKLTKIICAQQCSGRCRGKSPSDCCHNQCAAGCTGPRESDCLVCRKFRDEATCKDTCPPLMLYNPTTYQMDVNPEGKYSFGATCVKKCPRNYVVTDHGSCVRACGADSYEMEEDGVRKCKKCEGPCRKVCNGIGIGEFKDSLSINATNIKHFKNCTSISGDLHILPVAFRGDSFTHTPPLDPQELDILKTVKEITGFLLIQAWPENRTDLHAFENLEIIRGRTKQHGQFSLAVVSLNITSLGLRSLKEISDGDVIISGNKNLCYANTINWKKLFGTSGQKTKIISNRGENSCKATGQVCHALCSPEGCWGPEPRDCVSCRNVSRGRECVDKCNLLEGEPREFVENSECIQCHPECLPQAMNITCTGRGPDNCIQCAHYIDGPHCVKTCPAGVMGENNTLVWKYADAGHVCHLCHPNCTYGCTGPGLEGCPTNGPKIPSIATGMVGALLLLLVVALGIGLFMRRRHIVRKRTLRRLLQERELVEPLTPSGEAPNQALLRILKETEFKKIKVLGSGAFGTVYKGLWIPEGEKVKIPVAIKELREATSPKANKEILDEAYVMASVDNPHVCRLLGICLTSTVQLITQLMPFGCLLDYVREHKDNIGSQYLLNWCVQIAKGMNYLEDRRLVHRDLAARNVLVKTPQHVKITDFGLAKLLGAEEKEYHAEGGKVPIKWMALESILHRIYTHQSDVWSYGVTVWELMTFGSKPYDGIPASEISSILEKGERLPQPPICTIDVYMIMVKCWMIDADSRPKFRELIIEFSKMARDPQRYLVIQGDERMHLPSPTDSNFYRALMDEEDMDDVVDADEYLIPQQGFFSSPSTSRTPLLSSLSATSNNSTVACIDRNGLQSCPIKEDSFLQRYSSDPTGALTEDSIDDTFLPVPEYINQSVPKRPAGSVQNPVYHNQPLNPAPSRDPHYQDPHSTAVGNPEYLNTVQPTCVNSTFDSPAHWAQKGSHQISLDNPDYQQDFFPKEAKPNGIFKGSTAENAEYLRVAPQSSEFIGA
Description: Targeted therapy with tyrosine kinase inhibitors is a standard treatment for lung cancer with EGFR mutations. We reasoned that co-targeting an EGFR and a TfR receptor on lung cancer cells could lead to EGFR inhibition while maintaining high tumor specificity (FIG. 30A). We generated an anti-EGFR affibody*H7*GFLG-VR TransTAC. Incubation of the molecule with a human lung adenocarcinoma A549 cell line led to >90% EGFR degradation (FIG. 30B). […] This specificity results from higher TfR expression in tumor cells (FIG. 27A-C).
Next, we aimed to target epidermal growth factor receptor (EGFR), a receptor tyrosine kinase that plays an important role in the development and progression of various types of cancers such as lung and brain. An affibody (Friedman, Mikaela, et al. “Directed evolution to low nanomolar affinity of a tumor-targeting epidermal growth factor receptor-binding affibody molecule.” Journal of molecular biology 376.5, 2008: 1388-1402) was used to bind EGFR and create an EGFR-TransTAC.
We next investigated the cellular mechanism underlying TransTAC-mediated protein degradation. Two primary pathways involved in the degradation of cellular proteins were tested: the lysosomal pathway and the proteosome pathway. A549 cells were treated either with bafilomycin, a vacuolar proton pump inhibitor that inhibits lysosomal acidification, or MG132, a proteasomal inhibitor.

PC9-GR4 cells = assay: MTT cell viability assay, PC9-GR4 cells; type: cell-based
PC9 GR4 C797S cells = assay: MTT cell viability assay, PC9 GR4 C797S cells
CD20 = molecular target: T2, CD20 (Homo sapiens, UniProt P11836); assay: CD20 degradation in Raji cells; type: cell-based; settings: Western blot
T2 construct: endogenous in cells; host or cells: Raji
T2 sequence (P11836 1-297): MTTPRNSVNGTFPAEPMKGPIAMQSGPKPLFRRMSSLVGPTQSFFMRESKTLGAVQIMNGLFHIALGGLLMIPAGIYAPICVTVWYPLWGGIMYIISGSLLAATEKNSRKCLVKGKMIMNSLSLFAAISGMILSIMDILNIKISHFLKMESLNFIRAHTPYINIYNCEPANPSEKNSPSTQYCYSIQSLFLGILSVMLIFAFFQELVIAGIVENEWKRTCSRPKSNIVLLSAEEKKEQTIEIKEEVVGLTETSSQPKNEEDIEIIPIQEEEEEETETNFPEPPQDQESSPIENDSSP
Text: Cluster of differentiate 20 (CD20) is a B cell-specific surface marker with four transmembrane domains and an unknown function. Knocking down cell surface CD20s with a degrader can be valuable. A CD20-TransTAC was created using a Fab format of Rituximab, the first clinically approved CD20 antibody, to bind CD20.

In the case of `CC(C)C[C@@H](C=O)NC(=O)[C@H](CC(C)C)NC(=O)[C@H](CC(C)C)NC(=O)OCc1ccccc1` [MG132] (Cbz-Leu-Leu-Leu-aldehyde), the “effect of inhibitor on TransTAC-mediated EGFR degradation” value (EGFR) is reported as “sensitive; also recorded: much less significant effect”.
With `CN(C)C/C=C/C(=O)Nc1cc2c(Nc3ccc(F)c(Cl)c3)ncnc2cc1O[C@H]1CCOC1` [afatinib] the IC50 (PC9-GR4 cells) was 168 nM.
`CO/C1=C\C(C)=C\[C@@H](C)[C@@H](O)[C@@H](C)C/C(C)=C/C=C/[C@H](OC)[C@@H]([C@@H](C)[C@@H](O)[C@H](C)[C@@]2(O)C[C@@H](O)[C@H](C)[C@@H](C(C)C)O2)OC1=O` [bafilomycin] was tested, and the “effect of inhibitor on TransTAC-mediated EGFR degradation” value (EGFR) was “sensitive; also recorded: prevented TransTAC-mediated EGFR degradation; also recorded: fully inhibited”.
For `C=CC(=O)Nc1cc(Nc2nccc(-c3cn(C)c4ccccc34)n2)c(OC)cc1N(C)CCN(C)C` [osimertinib], the IC50 (PC9-GR4 cells) was 207 nM and the “inhibition of cell viability” value (PC9 GR4 C797S cells) was “did not respond”.
In the case of “rituximab-scFv-Fc control: rituximab scFv-Fc control without TfR binder”, the “CD20 degradation” value (CD20) is reported as “does not lead to significant CD20 degradation”.
